Entries after “also recorded” stand apart in the source; their conditions may differ. Where two headings read alike, the source gives them in different places.
Legend:
[1] = cited from earlier work
[2] = In vitro blood cell partitioning; format: in vitro ADME; conditions: 10 and 100 nmol/L, internal communication, data not shown
[3] = BI 187004 concentration in subcutaneous adipose tissue biopsies; conditions: gMean (%gCV); for BI 187004 AT Cday15: 24 h after last dose; for BI 187004 AT Cday2: immediately after second dose
[4] = format: in vivo, human; conditions: for BI 187004 Plasma Cday15: 24 h after last dose; for BI 187004 Plasma Cday15 / fe0–24 / CL/F SS / fe0–24,SS / BI 187004 Plasma Cday2 / Cmax: gMean (%gCV); for BI 187004 Plasma Cday2: immediately after second dose; for CL renal / Vd/F / AUC / AUC(0-t) / half-life / Cmax / Tmax: human, oral; for CL renal: plasma and urine; for Vd/F / AUC / AUC(0-t) / half-life / Cmax / Tmax: plasma; for Tmax: t max, median (min–max)
[5] = human, in vivo
Metabolic parameters = format: in vivo, human
[6] = system: hypothalamus-pituitary-adrenal (HPA) axis; experiment: Hormones of the HPA axis; format: in vivo, human; conditions: all dose groups, during treatment
HPA axis = experiment: Total urinary corticosteroid excretion; format: in vivo, human
[7] = In vitro plasma protein binding; format: in vitro ADME; conditions: internal communication, data not shown

In the case of `N#Cc1ccc2c(c1)[C@H]1CCCN(C(=O)c3ccc4[nH]cnc4c3)[C@H]1C2` [BI 187004], the “drug-related AEs” value ([1]; SRD study, healthy volunteers) is given as 16.7%, the half-life ([1]; single dose 5 mg, healthy volunteers) is given as 33.5 h and the half-life ([1]; single dose 360 mg, healthy volunteers) is given as 13.9 h. For the same compound, the “increase of total urinary corticosteroid excretion” value ([1]; single doses 2.5–360 mg) was “up to 2 fold”, the blood cell partitioning [2] was “no difference in blood cell partitioning at low concentrations” and the “clinical laboratory evaluations and vital signs” value (Safety and tolerability; 10–360 mg over 14 days) was “no notable findings”. The hypoglycemic episodes (Safety and tolerability; 10–360 mg over 14 days) was “No hypoglycemic episodes were reported”, the “intensity of AEs” value (Safety and tolerability; all dose groups) was “mild or moderate intensity” and the “serious AE or death” value (Safety and tolerability; during the trial) was “No serious AE or death occurred”. For the same compound, the “AE leading to discontinuation of treatment” value (Safety and tolerability; one patient, 360 mg, day 6, drug-related, moderate intensity) was “supraventricular tachycardia”, the “pollakiuria (AE)” value (Safety and tolerability; total BI 187004 group (6 patients, all 80–360 mg)) was 10.7% and the “gastrointestinal disorders (AE)” value (Safety and tolerability; total BI 187004 group (9 patients)) was 16.1%. For the same compound, the “nervous system disorders (only disorder: headache)” value (Safety and tolerability; total BI 187004 group (11 patients)) was 19.6%, the “frequency of patients reported with any AE” value (Safety and tolerability; total BI 187004 group (33 patients)) was 58.9% and the “incidence of drug-related adverse events” value (Safety and tolerability; total BI 187004 group, 10–360 mg once daily over 14 days (n=29)) was 51.8%. The “BI 187004 AT Cday15” value ([3]; 10 mg) was 45.5 (37.0) nmol/L, the “BI 187004 AT Cday2” value ([3]; 10 mg) was 34.5 (38.3) nmol/L and the “BI 187004 AT Cday15” value ([3]; 20 mg) was 66.1 (25.5) nmol/L. For the same compound, the “BI 187004 AT Cday2” value ([3]; 20 mg) was 51.8 (83.7) nmol/L, the “BI 187004 AT Cday15” value ([3]; 40 mg) was 74.2 (29.6) nmol/L and the “BI 187004 AT Cday2” value ([3]; 40 mg) was 142 (72.1) nmol/L. The “BI 187004 AT Cday15” value ([3]; 80 mg) was 140 (28.4) nmol/L, the “BI 187004 AT Cday2” value ([3]; 80 mg) was 142 (55.9) nmol/L and the “BI 187004 AT Cday15” value ([3]; 160 mg) was 238 (56.6) nmol/L. The “BI 187004 AT Cday2” value ([3]; 160 mg) was 518 (65.7) nmol/L, the “BI 187004 AT Cday15” value ([3]; 240 mg) was 245 (62.8) nmol/L and the “BI 187004 AT Cday2” value ([3]; 240 mg) was 872 (54.6) nmol/L. For the same compound, the “BI 187004 AT Cday15” value ([3]; 360 mg) was 454 (29.3) nmol/L, the “BI 187004 AT Cday2” value ([3]; 360 mg) was 925 (41.7) nmol/L and the “BI 187004 Plasma Cday15” value ([4]; 10 mg) was 322 (37.4) nmol/L. For the same compound, the “fe0–24” value ([4]; 10 mg, Day 1) was 5.72 (27.2) %, the “CL/F SS” value ([4]; 10 mg, Day 14) was 2.01 (28.2) L/h and the “fe0–24,SS” value ([4]; 10 mg, Day 14) was 10.3 (26.6) %. For the same compound, the “BI 187004 Plasma Cday2” value ([4]; 10 mg) was 156 (56.1) nmol/L, the “BI 187004 Plasma Cday15” value ([4]; 20 mg) was 520 (25.6) nmol/L and the “fe0–24” value ([4]; 20 mg, Day 1) was 6.14 (20.8) %. The “CL/F SS” value ([4]; 20 mg, Day 14) was 2.53 (24.7) L/h, the “fe0–24,SS” value ([4]; 20 mg, Day 14) was 9.83 (24.1) % and the “BI 187004 Plasma Cday2” value ([4]; 20 mg) was 291 (23.3) nmol/L. For the same compound, the “BI 187004 Plasma Cday15” value ([4]; 40 mg) was 744 (25.8) nmol/L, the “fe0–24” value ([4]; 40 mg, Day 1) was 3.82 (27.3) % and the “CL/F SS” value ([4]; 40 mg, Day 14) was 3.16 (21.1) L/h. The “fe0–24,SS” value ([4]; 40 mg, Day 14) was 6.31 (26.7) %, the “BI 187004 Plasma Cday2” value ([4]; 40 mg) was 511 (23.9) nmol/L and the “BI 187004 Plasma Cday15” value ([4]; 80 mg) was 1,360 (24.8) nmol/L. The “fe0–24” value ([4]; 80 mg, Day 1) was 4.15 (39.3) %, the “CL/F SS” value ([4]; 80 mg, Day 14) was 3.97 (26.4) L/h and the “fe0–24,SS” value ([4]; 80 mg, Day 14) was 6.05 (27.0) %. For the same compound, the “BI 187004 Plasma Cday2” value ([4]; 80 mg) was 1,020 (30.0) nmol/L, the “BI 187004 Plasma Cday15” value ([4]; 160 mg) was 2,430 (54.7) nmol/L and the “fe0–24” value ([4]; 160 mg, Day 1) was 5.12 (11.6) %. The “CL/F SS” value ([4]; 160 mg, Day 14) was 3.69 (37.9) L/h, the “fe0–24,SS” value ([4]; 160 mg, Day 14) was 6.82 (21.6) % and the “BI 187004 Plasma Cday2” value ([4]; 160 mg) was 1,660 (57.7) nmol/L. For the same compound, the “BI 187004 Plasma Cday15” value ([4]; 240 mg) was 2,280 (76.0) nmol/L, the “fe0–24” value ([4]; 240 mg, Day 1) was 4.87 (24.4) % and the “fe0–24,SS” value ([4]; 240 mg, Day 14) was 5.83 (22.7) %. For the same compound, the “BI 187004 Plasma Cday2” value ([4]; 240 mg) was 2,420 (50.6) nmol/L, the “BI 187004 Plasma Cday15” value ([4]; 360 mg) was 2,780 (19.6) nmol/L and the “fe0–24” value ([4]; 360 mg, Day 1) was 5.11 (22.4) %. For the same compound, the “CL/F SS” value ([4]; 360 mg, Day 14) was 6.47 (12.3) L/h, the “fe0–24,SS” value ([4]; 360 mg, Day 14) was 6.46 (8.01) % and the “BI 187004 Plasma Cday2” value ([4]; 360 mg) was 2,660 (36.5) nmol/L. For the same compound, the “dose proportionality of Cmax and AUCτ,ss” value ([4]; 10 to 360 mg) was “increased non-proportionally”, the time of absorption ([4]; 10–360 mg) was at most 2 h and the “gMean oral clearance (CL/F,ss), range over dose groups” value ([4]; 10–360 mg, day 14) was 2.01 to 6.47 L/h. For the same compound, the accumulation in plasma ([4]; between days 1 and 14) was “limited”, the CL renal ([4]; 10 mg) was 3.72 mL/min and the CL renal ([4]; 20 mg) was 4.3 mL/min. For the same compound, the CL renal ([4]; 40 mg) was 2.68 mL/min, the CL renal ([4]; 80 mg) was 3.47 mL/min and the CL renal ([4]; 160 mg) was 3.78 mL/min. It also gave a CL renal ([4]; 240 mg) of 4.38 mL/min, a CL renal ([4]; 360 mg) of 6.4 mL/min and a Vd/F [4] of 195 to 1160 L. For the same compound, the AUC ([4]; 10 mg) was 14.5 µM·h, the AUC(0-t) ([4]; 10 mg) was 7.5 µM·h and the Vd/F ([4]; 10 mg) was 308 L. For the same compound, the half-life ([4]; 10 mg) was 4.42 days, the Cmax ([4]; 10 mg, C max, 10 mg, Day 1) was 0.681 µM and the Cmax ([4]; 10 mg, C max,SS, 10 mg, Day 14) was 1.24 µM. It also gave a Tmax ([4]; 10 mg, 10 mg, Day 1) of 120 min, a Tmax ([4]; 10 mg, SS, 10 mg, Day 14) of 50 min and an AUC ([4]; 20 mg) of 23 µM·h. It also gave an AUC(0-t) ([4]; 20 mg) of 13.9 µM·h, a Vd/F ([4]; 20 mg) of 253 L and a half-life ([4]; 20 mg) of 2.88 days. It also gave a Cmax ([4]; 20 mg, C max, 20 mg, Day 1) of 1.37 µM, a Cmax ([4]; 20 mg, C max,SS, 20 mg, Day 14) of 1.94 µM and a Tmax ([4]; 20 mg, 20 mg, Day 1) of 50 min. It also gave a Tmax ([4]; 20 mg, SS, 20 mg, Day 14) of 50 min, an AUC ([4]; 40 mg) of 26.9 µM·h and an AUC(0-t) ([4]; 40 mg) of 27.7 µM·h. The Vd/F ([4]; 40 mg) was 195 L, the half-life ([4]; 40 mg) was 1.78 days and the Cmax ([4]; 40 mg, C max, 40 mg, Day 1) was 2.92 µM. It also gave a Cmax ([4]; 40 mg, C max,SS, 40 mg, Day 14) of 3.4 µM, a Tmax ([4]; 40 mg, 40 mg, Day 1) of 60 min and a Tmax ([4]; 40 mg, SS, 40 mg, Day 14) of 50 min. The AUC ([4]; 80 mg) was 58.8 µM·h, the AUC(0-t) ([4]; 80 mg) was 46.5 µM·h and the Vd/F ([4]; 80 mg) was 346 L. The half-life ([4]; 80 mg) was 2.51 days, the Cmax ([4]; 80 mg, C max, 80 mg, Day 1) was 4.32 µM and the Cmax ([4]; 80 mg, C max,SS, 80 mg, Day 14) was 4.93 µM. The Tmax ([4]; 80 mg, 80 mg, Day 1) was 50 min, the Tmax ([4]; 80 mg, SS, 80 mg, Day 14) was 75 min and the AUC ([4]; 160 mg) was 127 µM·h. The AUC(0-t) ([4]; 160 mg) was 106 µM·h, the Vd/F ([4]; 160 mg) was 230 L and the half-life ([4]; 160 mg) was 1.8 days. The Cmax ([4]; 160 mg, C max, 160 mg, Day 1) was 11.5 µM, the Cmax ([4]; 160 mg, C max,SS, 160 mg, Day 14) was 12.1 µM and the Tmax ([4]; 160 mg, 160 mg, Day 1) was 60 min. For the same compound, the Tmax ([4]; 160 mg, SS, 160 mg, Day 14) was 40 min, the AUC ([4]; 240 mg) was 145 µM·h and the AUC(0-t) ([4]; 240 mg) was 130 µM·h. For the same compound, the Vd/F ([4]; 240 mg) was 359 L, the half-life ([4]; 240 mg) was 2.15 days and the Cmax ([4]; 240 mg, C max, 240 mg, Day 1) was 14.6 µM. It also gave a Cmax ([4]; 240 mg, C max,SS, 240 mg, Day 14) of 15 µM, a Tmax ([4]; 240 mg, 240 mg, Day 1) of 60 min and a Tmax ([4]; 240 mg, SS, 240 mg, Day 14) of 40 min. The AUC ([4]; 360 mg) was 162 µM·h, the AUC(0-t) ([4]; 360 mg) was 140 µM·h and the Vd/F ([4]; 360 mg) was 1160 L. The half-life ([4]; 360 mg) was 5.17 days, the Cmax ([4]; 360 mg, C max, 360 mg, Day 1) was 14.3 µM and the Cmax ([4]; 360 mg, C max,SS, 360 mg, Day 14) was 15.5 µM. The Tmax ([4]; 360 mg, 360 mg, Day 1) was 60 min, the Tmax ([4]; 360 mg, SS, 360 mg, Day 14) was 90 min and the “general disorders and administration site conditions (AE, system organ class)” value [5] was 14.3%. For the same compound, the “fasting plasma glucose over the treatment period” value (Metabolic parameters; 14 days) was “not affected”, the body weight (Metabolic parameters; baseline, day 15, end-of-trial) was “remained unchanged; also recorded: Changes in body weight could not be observed” and the “mean ACTH levels” value [6] was “increased but within the normal range”. The “total urinary corticosteroid excretion, % of baseline, range over dose groups” value (HPA axis; after 14 days of treatment) was 176.2–253.5%, the “total urinary corticosteroid excretion increased to” value (HPA axis; highest dose-group value) was 253.5% and the “increase in total urinary corticosteroid excretion” value (HPA axis; multiple doses, 14 days) was 2.48 fold. For the same compound, the plasma protein binding [7] was “no increase in plasma protein binding down to 10 nmol/L”.

From article PMC9811530 (Experimental and Clinical Endocrinology & Diabetes, 2022)
